Data as given in patent publication US20240360114A1 (SIRONAX LTD., priority 2021, published 2024).

System: HT-1080 cells
Test: HT-1080 cell viability assay (ferroptosis induced by RSL3, Cell Titer-Glo)
Type: cell-based
Details: Homo sapiens, HT-1080, 20 h, ferroptosis inducer RSL3, 20 hours, ferroptosis inhibitory activity, Table 2
How it was run: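 Cells seeded overnight, then co-treated with RSL3 and compound (3-fold, 10-point dilution, top 1.1 μM) for 20 hours. Viability by CellTiter-Glo luminescence, normalized to untreated controls; EC50 from sigmoidal non-linear regression.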

SMILES	EC50 [nM]
NC1CCC(Nc2ccc(N3CCC(C(F)(F)F)CC3)cc2Cl)CC1 (centres unmarked) [Compound 70, N1-(2-chloro-4-(4-(trifluoromethyl)piperidin-1-yl)phenyl)cyclohexane-1,4-diamine]	0.1 to 100
NCC1CCC(Nc2ccc(N3CCC(C(F)(F)F)CC3)cc2)CC1 (centres unmarked) [Compound 3, N-(4-(aminomethyl)cyclohexyl)-4-(4-(trifluoromethyl)piperidin-1-yl)aniline]	0.1 to 100
CC1(C)CCC(c2ccc(NC3CCC(CCNC(=O)[C@H]4CC(=O)NC(=O)N4)CC3)cc2)CC1 (stereo partly drawn) [Compound 244A, (R)—N-(2-(4-((4-(4,4-dimethylcyclohexyl)phenyl)amino)cyclohexyl)ethyl)-2,6-dioxohexahydro pyrimidine-4-carboxamide]	0.1 to 100
N[C@H]1CC[C@H](Nc2ccc(N3CCC(C(F)(F)F)CC3)cc2)CC1 [Compound 354, (1r,4r)-N1-(4-(4-(trifluoromethyl)piperidin-1-yl)phenyl)cyclohexane-1,4-diamine]	0.1 to 100
CCC(CC)c1ccc(NC2CCC(CN)CC2)cc1 (single isomer, unassigned) [Compound 81A, N-(4-(aminomethyl)cyclohexyl)-4-(pentan-3-yl)aniline]	100 to 1000
CCCOc1ccc(NC2CCC(N)CC2)cc1 (centres unmarked) [Compound 174, N1-(4-propoxyphenyl)cyclohexane-1,4-diamine]	0.1 to 100
CC(C)(C)c1ccc(-c2ccc(NC3CCC(N)CC3)cc2)cc1 (centres unmarked) [Compound 220, N1-(4′-(tert-butyl)-[1,l′-biphenyl]-4-yl)cyclohexane-1,4-diamine]	0.1 to 100
N[C@H]1CC[C@H](CNc2ccc(N3CCC(C(F)(F)F)CC3)nc2)CC1 [Compound 398, N-(((1r,4r)-4-aminocyclohexyl)methyl)-6-(4-(trifluoromethyl)piperidin-1-yl)pyridin-3-amine]	0.1 to 100
Cc1cc(C)cc(NC2CCC(N)CC2)c1 (centres unmarked) [Compound 331, N1-(3,5-dimethylphenyl)cyclohexane-1,4-diamine]	100 to 1000
Cc1cc(N2CC(C)OC(C)C2)ccc1NC[C@H]1CC[C@H](N)CC1 (some centres unmarked) [Compound 387, N-(((1r,4r)-4-aminocyclohexyl)methyl)-4-(2,6-dimethylmorpholino)-2-methylaniline]	0.1 to 100
COCCCOc1cc(NC2CCC(N)CC2)ccc1C(C)(C)C (centres unmarked) [Compound 300A, N1-(4-(tert-butyl)-3-(3-methoxypropoxy)phenyl)cyclohexane-1,4-diamine]	0.1 to 100
CC(C)(C)c1ccc(NC2CCC(CCCCCN)CC2)cc1 (centres unmarked) [Compound 326, N-(4-(5-aminopentyl)cyclohexyl)-4-(tert-butyl)aniline]	0.1 to 100
Cc1cc(NC2CCC(N)CC2)ccc1N1CCC(C(F)(F)F)CC1 (centres unmarked) [Compound 66, N1-(3-methyl-4-(4-(trifluoromethyl)piperidin-1-yl)phenyl)cyclohexane-1,4-diamine]	0.1 to 100
CC(=O)NC1CCC(Nc2ccc(C3CCC(C)(C)CC3)cc2)CC1 (single isomer, unassigned) [Compound 157A, N-(4-((4-(4,4-dimethylcyclohexyl)phenyl)amino)cyclohexyl)acetamide]	0.1 to 100
CC1(C)CCC(c2ccc(NC3CCC(NC(=O)C4CNCCN4)CC3)cc2)CC1 (centres unmarked) [Compound 274, N-(4-((4-(4,4-dimethylcyclohexyl)phenyl)amino)cyclohexyl) piperazine-2-carboxamide]	0.1 to 100
NC1CCC(Nc2ccc(C3CCOCC3)cc2)CC1 (centres unmarked) [Compound 170, 1-N-(4-(tetrahydro-2H-pyran-+-yl)phenyl)cyclohexane-1,4-diamine]	1000 to 10000
CC1CCC(Nc2ccc(C(C)(C)C)cc2)CC1 (centres unmarked) [Compound 334, 4-(tert-butyl)-N-(4-methylcyclohexyl)aniline]	100 to 1000
CC(C)C1CCN(c2ncc(NC3C[C@H]4CC(NO)C[C@H]4C3)cn2)CC1 (stereo partly drawn) [Compound 401, N-((3aR, 6aS)-5-(hydroxyamino)octahydropentalen-2-yl)-2-(4-isopropylpiperidin-1-yl) pyrimidin-5-amine]	0.1 to 100
CC1(CN)CCC(Nc2ccc(C(C)(C)C)cc2)CC1 (centres unmarked) [Compound 339, N-(4-(aminomethyl)-4-methylcyclohexyl)-4-(tert-butyl)aniline]	0.1 to 100
CCNc1ccc(N2CCC(C(F)(F)F)CC2)cc1 [Compound 13, N-ethyl-4-(4-(trifluoromethyl)piperidin-1-yl)aniline]	0.1 to 100
CCCCCNc1ccc(N2CCC(C(F)(F)F)CC2)cc1 [Compound 15, N-pentyl-4-(4-(trifluoromethyl)piperidin-1-yl)aniline]	0.1 to 100
CC1(C)CCC(c2ccc(NCCCN3CCCC3)cc2)CC1 [Compound 171, 4-(4,4-dimethylcyclohexyl)-N-(3-(pyrrolidin-1-yl)propyl)aniline]	0.1 to 100
CC(C)(C)c1ccc(N[C@@H]2C[C@H](N)C[C@H](Nc3ccc(C(C)(C)C)cc3)C2)cc1 [Compound 351, (1R, 3S,5r)-N1,N3-bis(4-(tert-butyl)phenyl)cyclohexane-1,3,5-triamine]	0.1 to 100
CC(C)(C)c1ccc(NC2CCC(N)CC2)cc1F (centres unmarked) [Compound 242A, N1-(4-(tert-butyl)-3-fluorophenyl)cyclohexane-1,4-diamine 2,2,2-trifluoroacetate]	0.1 to 100
CC1(C)CCC(c2ccc(NCCCN)cc2)CC1 [Compound 209, 1-N-(4-(4,4-dimethylcyclohexyl)phenyl)propane-1,3-diamine]	0.1 to 100

Results, then the compound that gave them:

EC50 [nM]	SMILES
0.1 to 100	CC[C@@H]1CN(c2ccc(NC[C@H]3CC[C@H](N)CC3)c(C)n2)C[C@H](CC)O1 [Compound 500, N-(((1r,4R)-4-aminocyclohexyl)methyl)-6-((2R,6S)-2,6-diethylmorpholino)-2-methylpyridin-3-amine]
0.1 to 100	CC(=O)N1C(C)CN(c2ccc(NC3CC4(CC(N)C4)C3)c(C)n2)CC1C (centres unmarked) [Compound 555, 1-(4-(5-((6-aminospiro[3.3]heptan-2-yl)amino)-6-methylpyridin-2-yl)-2,6-dimethylpiperazin-1-yl)ethan-1-one]
0.1 to 100	Cc1nc(N2C[C@H](C)O[C@@H](C)C2)ccc1NC1CC2(CC(N)C2)C1 (stereo partly drawn) [Compound 479, N2-(6-((2S,6S)-2,6-dimethylmorpholino)-2-methylpyridin-3-yl)spiro[3.3]heptane-2,6-diamine]
100 to 1000	Cc1nc(N2CC3(CCOCC3)C2)ccc1NC1CC2(CC(N)C2)C1 (centres unmarked) [Compound 494, N2-(2-methyl-6-(7-oxa-2-azaspiro[3.5]nonan-2-yl)pyridin-3-yl)spiro[3.3]heptane-2,6-diamine]
0.1 to 100	Cc1cc(N2CC3(COC3)C2)ccc1NC1CC2(CC(N)C2)C1 (centres unmarked) [Compound 482, N2-(2-methyl-4-(2-oxa-6-azaspiro[3.3]heptan-6-yl)phenyl)spiro[3.3]heptane-2,6-diamine]
100 to 1000	CC1CN(c2ccc(NC[C@H]3CC[C@H](N)CC3)cc2)CC(C)N1C (some centres unmarked) [Compound 525, N-(((1r,4r)-4-aminocyclohexyl)methyl)-4-(3,4,5-trimethylpiperazin-1-yl)aniline]
0.1 to 100	NC1CC2(C1)CC(Nc1ccc(N3CCN(CC(F)(F)F)CC3)cc1)C2 (centres unmarked) [Compound 505, N2-(4-(4-(2,2,2-trifluoroethyl)piperazin-1-yl)phenyl)spiro[3.3]heptane-2,6-diamine]
0.1 to 100	CC(C)C1CCN(c2ncc(NCC[C@H]3CC[C@H](NC(N)=O)CC3)cn2)CC1 [Compound 429, 1-((1r,4r)-4-(2-((2-(4-isopropylpiperidin-1-yl)pyrimidin-5-yl)amino)ethyl)cyclohexyl)urea]
0.1 to 100	Cc1nc(N2CCOC(C)C2)ccc1NC1C2CC3CC1CC(CN)(C3)C2 (centres unmarked) [Compound 520, N-(5-(aminomethyl)adamantan-2-yl)-2-methyl-6-(2-methylmorpholino)pyridin-3-amine]
100 to 1000	CC1CN(c2ccc(NC3CCCCC3N)c(F)c2)CC(C)O1 (centres unmarked) [Compound 441, N1-(4-(2,6-dimethylmorpholino)-2-fluorophenyl)cyclohexane-1,2-diamine]
0.1 to 100	CC1CN(c2ncc3cc(NC4CC5(CC(N)C5)C4)ccc3n2)CC(C)O1 (centres unmarked) [Compound 571, N^2-(2-(2,6-dimethylmorpholino)quinazolin-6-yl)spiro[3.3]heptane-2,6-diamine]
0.1 to 100	CC(C)C1CCN(c2ncc(NC3CC4(CC(NCCF)C4)C3)cn2)CC1 (centres unmarked) [Compound 412, N2-(2-fluoroethyl)-N6-(2-(4-isopropylpiperidin-1-yl)pyrimidin-5-yl)spiro[3.3]heptane-2,6-diamine]

Same assay, conditions: Homo sapiens, HT-1080, 20 h, ferroptosis inducer RSL3, 20 hours, ferroptosis inhibitory activity, Table 3

EC50 [nM]	SMILES
0.1 to 100	NC1CC(Nc2ccc3nc(N4CCC(C(F)(F)F)CC4)ccc3c2)C1 (centres unmarked) [Compound 592, N1-(2-(4-(trifluoromethyl)piperidin-1-yl)quinolin-6-yl)cyclobutane-1,3-diamine]
100 to 1000	CC(=O)N1C(C)CN(c2ccc(NC3CC4(CC(N)C4)C3)c(C)n2)CC1C (centres unmarked) [Compound 600]
0.1 to 100	CCNc1ccc2cc(NC3CC4(CC(N)C4)C3)ccc2c1 (centres unmarked) [Compound 658, N2-(6-aminospiro[3.3]heptan-2-yl)-N^6-ethylnaphthalene-2,6-diamine]
0.1 to 100	Cc1cc(NC2CC3(CC(N)C3)C2)ccc1N1CCN(CC(F)(F)F)CC1 (centres unmarked) [Compound 574, N^2-(3-methyl-4-(4-(2,2,2-trifluoroethyl)piperazin-1-yl)phenyl)spiro/3.3/heptane-2.6-diamine]
0.1 to 100	Cc1nc(N2C[C@@H](C)O[C@@H](C)C2)ccc1NCCC[C@H]1C[C@@H](N)C1 [Compound 578, N-(3-((1s,3R)-3-aminocyclobutyl)propyl)-6-((2S,6R)-2,6-dimethylmorpholino)-2-methylpyridin-3-amine]
0.1 to 100	Cc1nc(N2C[C@@H](C)O[C@@H](C)C2)ccc1NC1C2CC3CC1CC(CNCCO)(C3)C2 (some centres unmarked) [Compound 585]

Same assay, conditions: ferroptosis inducer RSL3, 20 hours, ferroptosis inhibitory activity, Table 2

EC50 [nM]	SMILES
100 to 1000	CC1CN(c2ccc(NC3CC4(CC(N)C4)C3)cc2F)CC(C)N1CC(F)(F)F (centres unmarked) [Compound 186, N2-(4-(3,5-dimethyl-4-(2,2,2-trifluoroethyl)piperazin-1-yl)-3-fluorophenyl) spiro-[3.3]heptane-2,6-diamine]
